Source: patent US12465615B2, “Aqueous solutions containing purines and pyrimidines and uses thereof” (UCB BIOSCIENCES, INC., priority 2021, dated 2025)

Tests used:
Format in all cases: physicochemical
[1] = Reconstitution of thymidine in water with differing amounts of deoxycytidine (HPLC content after 2 minutes of mixing); conditions: 6000 mg dT in 120 mL water
Procedure: The solubility of thymidine in combination with different amounts of deoxycytidine was determined using HPLC and reconstitution methods as described below.
Each 50 mg/mL stock solution was prepared by adding 120 mL of purified water to a 400 mL beaker, stirring the water at 650 rpm, and then adding the amounts of thymidine and/or deoxycytidine as listed in the Table 3 below for each sample to form mixtures.
Each mixture was stirred at 650 rpm for about 1 minute, after which the stirring was reduced to 150 rpm and maintained at 150 rpm for about 1 minute. After about 2 minutes total, the mixture was filtered through a 0.45 μm syringe filter to obtain filtered stock solutions for each sample.
0.9 mg/mL intermediate solutions of each of the above samples were prepared by adding 1.0 mL of the respective filtered stock solution into a 50 mL volumetric flask and diluting to volume with a diluent (e.g., water) and mixing.
0.09 mg/mL working solutions of each of the above samples were prepared by adding 1.0 mL of the respective intermediate solution into a 10 mL volumetric flask and diluting to volume with a diluent (e.g., water) and mixing. The resulting mixture was transferred to an HPLC vial.
Working solutions for each of the above samples were subjected to HPLC analysis utilizing the conditions and parameters below and in Table 4. The data collected from the HPLC analysis was then used to calculate percent content of thymidine dissolved for each sample after 2 minutes of mixing. • Mobile Phase A: Purified Water (degassed by sonication) • […] (degassed by sonication)
[formula] • ASample=Peak area of dC or dT in the sample solution • WStd=Weight of dC or dT reference material [mg] • PurityStd=Purity of dC or dT reference material in %/100 • VSample=Dilution of sample solution corrected with dC or dT [mL] • LCFW=Correction factor of Label Claim and fill weight/0.4825 (2000 mg/4145 mg) • AStd=Mean peak area of dC or dT in the 6 injections of Std1 at beginning • WSample=Weight of sample (mg) • VStd=Dilution of standard solution [mL]/50 mL • 100=Conversion in % Results
The dC Level is the percentage of the mass of dC relative to dT. The dT Content is the percentage of dT in solution within 2 minutes of stirring in the presence of the indicated dC level.

[2] = pH of thymidine suspensions after stirring
Procedure: (§1) The procedure involved adding 300 mg of the thymidine to 3.0 mL of liquid and stirring. The three liquids were water, water wherein 50 mg/mL of deoxycytidine had already been dissolved, and water buffered at about pH 3. The pH 3 buffered water was created by adding 821 mg of anhydrous citric acid and 213 mg of sodium citrate dehydrate to a 100 mL volumetric flask and adding water to the 100 mL mark while dissolving the solids. The deoxycytidine solution was created by adding 500 mg of deoxycytidine to a 10 mL volumetric flask and filling the flask with water while dissolving the solids, yielding a pH of 8.23 and a deoxycytidine concentration of about 50 mg/mL.
(§2) The liquids were stirred and samples were withdrawn at 5 mins, 10 mins, and 24 hours. At each time period 0.7 mL of the suspension was removed and subjected to filtration through a 0.45 μm PTFE filter, and 0.3 mL of the suspension was removed and centrifuged at 10,000 rpm for 2 minutes. The filtrate from the filtration and the supernatant from the centrifugation were subjected to high performance liquid chromatography (HPLC) to determine the amount of dissolved thymidine.
The pH of the suspensions were also recorded.

[3] = Solubility of thymidine in aqueous liquids (300 mg in 3.0 mL, stirring, HPLC)
From the text: The solubility of thymidine was investigated wherein the dissolving liquid was water, pH 3 buffered water, and deoxycytidine containing water. The deoxycytidine employed in the solubility studies is referred to as Form A deoxycytidine, e.g. as described in U.S. Patent Publication 2021/0054014, which is incorporated herein by reference. Form A deoxycytidine is characterized by an X-ray diffraction pattern comprising peaks at 8.4, 12.9, 14.2, 16.8, 18.4, 19.4, 28.4, 30.0, and 30.6 degrees two-theta (2θ) (+/−0.2). The X-ray diffraction pattern can be recorded using CuKα1 radiation.
as §1, §2
Solubilities are reported in mg/mL.

[4] = Water with 50 mg/mL of deoxycytidine, stirring 24 hrs
[5] = pH 3 buffered water, stirring 10 mins
[6] = pH 3 buffered water, stirring 24 hrs

Compound: Cc1cn([C@H]2C[C@H](O)[C@@H](CO)O2)c(=O)[nH]c1=O [thymidine]
- dT Content (percentage of dT in solution within 2 minutes of stirring) ([1]; dC Level 0 % (mass of dC relative to dT)): 89.09%
- dT Content (percentage of dT in solution within 2 minutes of stirring) ([1]; dC Level 10 %): 93.39%
- dT Content (percentage of dT in solution within 2 minutes of stirring) ([1]; dC Level 20 %): 92.69%
- dT Content (percentage of dT in solution within 2 minutes of stirring) ([1]; dC Level 40 %): 95.68%
- dT Content (percentage of dT in solution within 2 minutes of stirring) ([1]; dC Level 80 %): 96.78%
- dT Content (percentage of dT in solution within 2 minutes of stirring) ([1]; dC Level 100 %): 95.91%
- pH of suspensions ([2]; Water with 50 mg/mL of deoxycytidine, stirring 5 mins): 7.3
- pH of suspensions ([2]; Water with 50 mg/mL of deoxycytidine, stirring 10 mins): 7.1
- pH of suspensions [2, 4]: 7.3
- pH of suspensions ([2]; Water, stirring 5 mins): 7.3
- pH of suspensions ([2]; Water, stirring 10 mins): 7.3
- pH of suspensions ([2]; Water, stirring 24 hrs): 7.3
- pH of suspensions ([2]; pH 3 buffered water, stirring 5 mins): 3.2
- pH of suspensions [2, 5]: 3.1
- pH of suspensions [2, 6]: 3.1
- thymidine solubility higher than the thymidine solubility in water ([3]; 50 mg/mL deoxycytidine solution versus water, 5 minutes): about 38%
- Dissolved thymidine [3, 4]: 65.62 mg/mL
- Dissolved thymidine ([3]; Water, stirring 24 hrs): 51.04 mg/mL
- thymidine solubility higher than in water ([3]; deoxycytidine liquid versus water, 10 minutes): about 58%
- Dissolved thymidine [3, 5]: 59.66 mg/mL
- Dissolved thymidine [3, 6]: 52.04 mg/mL
